Values joined by “and” are separate entries in the source; they are usually repeats but may differ in a detail not shown here. Identical values can stand only once. Toxic doses and inconclusive results are not listed. Rule for the calls: active = survival T/C of 150% or more; inactive = T/C below 125% in these data.
System: CD2F1 mice, L1210 leukemia ip, survival T/C
Experiment: NCI In Vivo Anticancer Drug Screen. Data for tumor model L1210 Leukemia (intraperitoneal) in CD2F1 (CDF1) mice
Conditions: higher = longer survival
In short: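 Transplantable tumor in mice; compound-treated vs vehicle-treated groups. Read-out = treated/control ratio of the measured endpoint.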

[1] = endpoint: mean survival time, dose: 100.0 mg/kg/injection, schedule: Q01DX009 (ip), vehicle: saline with Tween-80
[2] = endpoint: mean survival time, dose: 200.0 mg/kg/injection, schedule: Q01DX009 (ip), vehicle: saline with Tween-80
[3] = endpoint: mean survival time, dose: 400.0 mg/kg/injection, schedule: Q01DX009 (ip), vehicle: saline with Tween-80

Measured: T/C

O=S(O)C(=NC1CCCCC1)NC1CCCCC1
inactive: [1] 90 % of control | [2] 90 % of control | [3] 105 % of control

CC(C)(C)N(Cc1ccccc1)Cc1ccccc1
inactive: [1] 102 % of control | [2] 98 % of control | [3] 101 % of control

O=P(OCc1ccccc1)(N(CCCl)CCCl)N1CCCCC1 (stereo not drawn)
inactive: endpoint: mean survival time, dose: 62.5 mg/kg/injection, schedule: Q01DX010 (ip), vehicle: saline 98 % of control | endpoint: mean survival time, dose: 125.0 mg/kg/injection, schedule: Q01DX010 (ip), vehicle: saline 101 % of control | endpoint: mean survival time, dose: 250.0 mg/kg/injection, schedule: Q01DX010 (ip), vehicle: saline 90 % of control

Nc1ncnc2c1ccn2C1OC(CO)C(O)C1O (stereo not drawn)
inactive: endpoint: mean survival time, dose: 0.13 mg/kg/injection, schedule: Q01DX009 (ip), vehicle: saline 104 % of control and 106 % of control | endpoint: mean survival time, dose: 0.16 mg/kg/injection, schedule: Q01DX010 (ip), vehicle: saline 98 % of control and 108 % of control | endpoint: mean survival time, dose: 0.25 mg/kg/injection, schedule: Q01DX009 (ip), vehicle: saline 104 % of control and 110 % of control | endpoint: mean survival time, dose: 0.32 mg/kg/injection, schedule: Q01DX010 (ip), vehicle: saline 104 % of control and 111 % of control | endpoint: mean survival time, dose: 0.5 mg/kg/injection, schedule: Q01DX009 (ip), vehicle: saline 103 % of control and 104 % of control | endpoint: mean survival time, dose: 0.5 mg/kg/injection, schedule: Q03HX008 (ip), vehicle: carboxymethylcellulose (CMC) 102 % of control | endpoint: mean survival time, dose: 0.5 mg/kg/injection, schedule: Q06HX004 (ip), vehicle: carboxymethylcellulose (CMC) 101 % of control | endpoint: mean survival time, dose: 0.63 mg/kg/injection, schedule: Q01DX009 (ip), vehicle: saline 114 % of control | endpoint: mean survival time, dose: 0.63 mg/kg/injection, schedule: Q01DX010 (ip), vehicle: saline 98 % of control and 107 % of control | endpoint: mean survival time, dose: 1.0 mg/kg/injection, schedule: Q01DX001 (ip), vehicle: carboxymethylcellulose (CMC) 109 % of control | endpoint: mean survival time, dose: 1.0 mg/kg/injection, schedule: Q01DX009 (ip), vehicle: saline 99 % of control and 107 % of control | endpoint: mean survival time, dose: 1.0 mg/kg/injection, schedule: Q03HX008 (ip), vehicle: carboxymethylcellulose (CMC) 104 % of control | endpoint: mean survival time, dose: 1.0 mg/kg/injection, schedule: Q06HX004 (ip), vehicle: carboxymethylcellulose (CMC) 104 % of control | endpoint: mean survival time, dose: 1.0 mg/kg/injection, schedule: Q#A X002 (ip), vehicle: carboxymethylcellulose (CMC) 108 % of control | endpoint: mean survival time, dose: 1.25 mg/kg/injection, schedule: Q01DX009 (ip), vehicle: saline 118 % of control | endpoint: mean survival time, dose: 1.25 mg/kg/injection, schedule: Q01DX010 (ip), vehicle: saline 118 % of control and 119 % of control | endpoint: mean survival time, dose: 2.0 mg/kg/injection, schedule: Q03HX008 (ip), vehicle: carboxymethylcellulose (CMC) 117 % of control | endpoint: mean survival time, dose: 2.0 mg/kg/injection, schedule: Q06HX004 (ip), vehicle: carboxymethylcellulose (CMC) 107 % of control | endpoint: mean survival time, dose: 2.0 mg/kg/injection, schedule: Q#A X002 (ip), vehicle: carboxymethylcellulose (CMC) 110 % of control | endpoint: mean survival time, dose: 2.5 mg/kg/injection, schedule: Q01DX009 (ip), vehicle: saline 116 % of control | endpoint: mean survival time, dose: 4.0 mg/kg/injection, schedule: Q01DX001 (ip), vehicle: carboxymethylcellulose (CMC) 120 % of control | endpoint: mean survival time, dose: 4.0 mg/kg/injection, schedule: Q03HX008 (ip), vehicle: carboxymethylcellulose (CMC) 108 % of control | endpoint: mean survival time, dose: 4.0 mg/kg/injection, schedule: Q06HX004 (ip), vehicle: carboxymethylcellulose (CMC) 114 % of control | endpoint: mean survival time, dose: 8.0 mg/kg/injection, schedule: Q01DX001 (ip), vehicle: carboxymethylcellulose (CMC) 124 % of control | endpoint: mean survival time, dose: 8.0 mg/kg/injection, schedule: Q03HX008 (ip), vehicle: carboxymethylcellulose (CMC) 118 % of control | endpoint: mean survival time, dose: 8.0 mg/kg/injection, schedule: Q06HX004 (ip), vehicle: carboxymethylcellulose (CMC) 116 % of control | endpoint: mean survival time, dose: 8.0 mg/kg/injection, schedule: Q#A X002 (ip), vehicle: carboxymethylcellulose (CMC) 122 % of control | endpoint: median survival time, dose: 0.06 mg/kg/injection, schedule: Q03HX024 (ip), vehicle: other 107 % of control | endpoint: median survival time, dose: 0.13 mg/kg/injection, schedule: Q03HX008 (ip), vehicle: other 102 % of control | endpoint: median survival time, dose: 0.13 mg/kg/injection, schedule: Q03HX016 (ip), vehicle: other 96 % of control | endpoint: median survival time, dose: 0.13 mg/kg/injection, schedule: Q03HX024 (ip), vehicle: other 100 % of control | endpoint: median survival time, dose: 0.25 mg/kg/injection, schedule: Q01DX009 (ip), vehicle: other 94 % of control | endpoint: median survival time, dose: 0.25 mg/kg/injection, schedule: Q01DX009 (sc), vehicle: other 93 % of control | endpoint: median survival time, dose: 0.25 mg/kg/injection, schedule: Q03HX008 (ip), vehicle: other 96 % of control | endpoint: median survival time, dose: 0.25 mg/kg/injection, schedule: Q03HX016 (ip), vehicle: other 94 % of control | endpoint: median survival time, dose: 0.25 mg/kg/injection, schedule: Q03HX024 (ip), vehicle: other 101 % of control | endpoint: median survival time, dose: 0.5 mg/kg/injection, schedule: Q01DX009 (ip), vehicle: other 88 % of control | endpoint: median survival time, dose: 0.5 mg/kg/injection, schedule: Q01DX009 (oral), vehicle: other 99 % of control | endpoint: median survival time, dose: 0.5 mg/kg/injection, schedule: Q01DX009 (sc), vehicle: other 98 % of control | endpoint: median survival time, dose: 0.5 mg/kg/injection, schedule: Q03HX008 (ip), vehicle: other 100 % of control | endpoint: median survival time, dose: 0.5 mg/kg/injection, schedule: Q03HX016 (ip), vehicle: other 101 % of control | endpoint: median survival time, dose: 0.5 mg/kg/injection, schedule: Q03HX024 (ip), vehicle: other 96 % of control | endpoint: median survival time, dose: 0.5 mg/kg/injection, schedule: Q04DX003 (ip), vehicle: other 98 % of control | endpoint: median survival time, dose: 1.0 mg/kg/injection, schedule: Q01DX001 (ip), vehicle: other 102 % of control | endpoint: median survival time, dose: 1.0 mg/kg/injection, schedule: Q01DX001 (sc), vehicle: other 104 % of control | endpoint: median survival time, dose: 1.0 mg/kg/injection, schedule: Q01DX009 (ip), vehicle: other 92 % of control | endpoint: median survival time, dose: 1.0 mg/kg/injection, schedule: Q01DX009 (oral), vehicle: other 99 % of control | endpoint: median survival time, dose: 1.0 mg/kg/injection, schedule: Q01DX009 (sc), vehicle: other 98 % of control | endpoint: median survival time, dose: 1.0 mg/kg/injection, schedule: Q03HX008 (ip), vehicle: other 99 % of control | endpoint: median survival time, dose: 1.0 mg/kg/injection, schedule: Q03HX016 (ip), vehicle: other 93 % of control | endpoint: median survival time, dose: 1.0 mg/kg/injection, schedule: Q04DX003 (ip), vehicle: other 99 % of control | endpoint: median survival time, dose: 1.0 mg/kg/injection, schedule: Q08DX002 (ip), vehicle: other 108 % of control | endpoint: median survival time, dose: 2.0 mg/kg/injection, schedule: Q01DX001 (ip), vehicle: other 111 % of control | endpoint: median survival time, dose: 2.0 mg/kg/injection, schedule: Q01DX001 (oral), vehicle: other 99 % of control | endpoint: median survival time, dose: 2.0 mg/kg/injection, schedule: Q01DX001 (sc), vehicle: other 103 % of control | endpoint: median survival time, dose: 2.0 mg/kg/injection, schedule: Q01DX009 (oral), vehicle: other 100 % of control | endpoint: median survival time, dose: 2.0 mg/kg/injection, schedule: Q01DX009 (sc), vehicle: other 91 % of control | endpoint: median survival time, dose: 2.0 mg/kg/injection, schedule: Q04DX003 (ip), vehicle: other 111 % of control | endpoint: median survival time, dose: 2.0 mg/kg/injection, schedule: Q08DX002 (ip), vehicle: other 104 % of control | endpoint: median survival time, dose: 4.0 mg/kg/injection, schedule: Q01DX001 (ip), vehicle: other 113 % of control | endpoint: median survival time, dose: 4.0 mg/kg/injection, schedule: Q01DX001 (oral), vehicle: other 96 % of control | endpoint: median survival time, dose: 4.0 mg/kg/injection, schedule: Q01DX001 (sc), vehicle: other 99 % of control | endpoint: median survival time, dose: 4.0 mg/kg/injection, schedule: Q01DX009 (oral), vehicle: other 101 % of control | endpoint: median survival time, dose: 4.0 mg/kg/injection, schedule: Q01DX009 (sc), vehicle: other 93 % of control | endpoint: median survival time, dose: 4.0 mg/kg/injection, schedule: Q04DX003 (ip), vehicle: other 106 % of control | endpoint: median survival time, dose: 4.0 mg/kg/injection, schedule: Q08DX002 (ip), vehicle: other 114 % of control | endpoint: median survival time, dose: 8.0 mg/kg/injection, schedule: Q01DX001 (ip), vehicle: other 110 % of control | endpoint: median survival time, dose: 8.0 mg/kg/injection, schedule: Q01DX001 (oral), vehicle: other 101 % of control | endpoint: median survival time, dose: 8.0 mg/kg/injection, schedule: Q01DX001 (sc), vehicle: other 100 % of control | endpoint: median survival time, dose: 8.0 mg/kg/injection, schedule: Q01DX009 (oral), vehicle: other 103 % of control | endpoint: median survival time, dose: 8.0 mg/kg/injection, schedule: Q04DX003 (ip), vehicle: other 90 % of control | endpoint: median survival time, dose: 8.0 mg/kg/injection, schedule: Q08DX002 (ip), vehicle: other 108 % of control | endpoint: median survival time, dose: 16.0 mg/kg/injection, schedule: Q01DX001 (oral), vehicle: other 100 % of control | endpoint: median survival time, dose: 32.0 mg/kg/injection, schedule: Q01DX001 (oral), vehicle: other 86 % of control

Source: PubChem BioAssay AID256 (DTP/NCI, 2004)
